Measured values as given in the supplement of paper PMC4862054.

Experiments:
Conditions in all cases: incubation time: 72 h
[1] = test system: SK-BR-3; test: normalised viability (% of control), CellTiter-Blue; higher = more viable cells (100 = DMSO, 0 = benzethonium chloride kill control)
Procedure: (§1)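 DSRT, CellTiter-Blue viability, 72 h incubation. Signal is normalised to DMSO and benzethonium chloride controls. Value is the normalised response at dose 1.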

[2] = test system: MFM-223; test: as above
Procedure: as §1

[3] = test system: BT-549; test: as above
Procedure: as §1

[4] = test system: HCC1937; test: as above
Procedure: as §1

[5] = test system: MDA-MB-436; test: as above
Procedure: as §1

[6] = test system: HCC1143; test: as above
Procedure: as §1

[7] = test system: MDA-MB-468; test: as above
Procedure: as §1

[8] = test system: CAL-148; test: as above
Procedure: as §1

[9] = test system: HCC1599; test: as above
Procedure: as §1

[10] = test system: MDA-MB-231; test: as above
Procedure: as §1

[11] = test system: HDQ-P1; test: as above
Procedure: as §1

[12] = test system: DU-4475; test: as above
Procedure: as §1

[13] = test system: Hs578T; test: as above
Procedure: as §1

[14] = test system: BT-474; test: as above
Procedure: as §1

[15] = test system: CAL-120; test: as above
Procedure: as §1

[16] = test system: CAL-85-1; test: as above
Procedure: as §1

[17] = test system: MDA-MB-453; test: as above
Procedure: as §1

[18] = test system: CAL-51; test: as above
Procedure: as §1

[19] = test system: SK-BR-3; test: normalised response (% of control), CellTiter-Glo; higher = more viable cells (100 = DMSO, 0 = benzethonium chloride kill control)
Outline: (§2)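 The table gives the normalised signal for a single concentration in each entry. Breast cancer cell lines were seeded (20 µl suspension) into 384-well plates holding compound at 5 concentrations in 10-fold steps over a compound-specific 10,000-fold range and incubated 72 h, then read for CellTox Green fluorescence (485/520 nm) and CellTiter-Glo luminescence. Normalisation on each plate used 0.1 % DMSO (100) and a positive kill control (0).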

[20] = test system: MFM-223; test: as above
Outline: as §2

[21] = test system: BT-549; test: as above
Outline: as §2

[22] = test system: HCC1937; test: as above
Outline: as §2

[23] = test system: MDA-MB-436; test: as above
Outline: as §2

[24] = test system: HCC1143; test: as above
Outline: as §2

[25] = test system: MDA-MB-468; test: as above
Outline: as §2

[26] = test system: CAL-148; test: as above
Outline: as §2

[27] = test system: HCC1599; test: as above
Outline: as §2

[28] = test system: MDA-MB-231; test: as above
Outline: as §2

[29] = test system: HDQ-P1; test: as above
Outline: as §2

[30] = test system: DU-4475; test: as above
Outline: as §2

[31] = test system: Hs578T; test: as above
Outline: as §2

[32] = test system: BT-474; test: as above
Outline: as §2

[33] = test system: CAL-120; test: as above
Outline: as §2

[34] = test system: CAL-85-1; test: as above
Outline: as §2

[35] = test system: MCF-10A; test: as above
Outline: as §2

[36] = test system: MDA-MB-453; test: as above
Outline: as §2

[37] = test system: CAL-51; test: as above
Outline: as §2

Structure (SMILES) | normalised viability [1] [%] | normalised viability [2] [%] | normalised viability [3] [%] | normalised viability [4] [%] | normalised viability [5] [%] | normalised viability [6] [%] | normalised viability [7] [%] | normalised viability [8] [%] | normalised viability [9] [%] | normalised viability [10] [%] | normalised viability [11] [%] | normalised viability [12] [%] | normalised viability [13] [%] | normalised viability [14] [%] | normalised viability [15] [%] | normalised viability [16] [%] | normalised viability [17] [%] | normalised viability [18] [%] | normalised response [19] [%] | normalised response [20] [%] | normalised response [21] [%] | normalised response [22] [%] | normalised response [23] [%] | normalised response [24] [%] | normalised response [25] [%] | normalised response [26] [%] | normalised response [27] [%] | normalised response [28] [%] | normalised response [29] [%] | normalised response [30] [%] | normalised response [31] [%] | normalised response [32] [%] | normalised response [33] [%] | normalised response [34] [%] | normalised response [35] [%] | normalised response [36] [%] | normalised response [37] [%]
COc1ncc(-c2ccc3nccc(-c4ccnnc4)c3c2)cc1NS(=O)(=O)c1ccc(F)cc1F (0.1 nM) | 86.9 | 91.4 | 108 | 100 | 113 | 89.1 | 101 | 99.6 | 83.8 | 92 | 103 | 108 | 112 | 115 | 81 | 90.2 | 94.3 | 93.7 | 108 | 111 | 101 | 98.2 | 97.7 | 106 | 100 | 97.9 | 92.1 | 104 | 99.8 | 99.8 | 103 | 101 | 98.4 | 98.1 | 120 | 125 | 112
C[C@@]1(C(=O)Nc2ccc(F)nc2)CCCN1c1nc(Nc2cc(C3CC3)n[nH]2)c2cccn2n1 (1 nM) | 101 | 96.1 | 88.2 | 118 | 122 | 92 | 107 | 97.1 | 102 | 115 | 95.4 | 105 | 104 | 99 | 90.9 | 92.9 | 98.1 | 99.6 | 87.3 | 87.7 | 95.9 | 88.7 | 83.9 | 89 | 93.6 | 83.3 | 90.4 | 94.2 | 91.2 | 95.2 | 95.3 | 93 | 87.5 | 93 | 77.6 | 91.9 | 95.1
COc1c(C)cnc(Cn2cnc3c(Cl)nc(N)nc32)c1C [BIIB021] (1 nM) | 75.8 | 80.8 | 97.7 | 93.4 | 102 | 82.9 | 94.6 | 96.5 | 143 | 76.3 | 86.4 | 87.7 | 105 | 91.7 | 76.8 | 78.1 | 93.9 | 101 | 93.6 | 102 | 95.6 | 103 | 99 | 97.6 | 101 | 106 | 124 | 112 | 95.6 | 103 | 106 | 99.1 | 103 | 98.1 | 104 | 106 | 74
